Measured values as given in patent US20240158446A1, “CYCLIC COMPOUND HAVING SELECTIVE INHIBITORY ACTION ON KRAS OVER HRAS AND NRAS” (CHUGAI SEIYAKU KABUSHIKI KAISHA, priority 2021, published 2024).
Read-outs that look alike come from different tables or passages of the source. Where a SMILES comes first, the peptide text is derived from it. Bridges are numbered along the chain shown (N, C = ends). [ ]: non-standard residue; d: D form. The star is where a group is joined. hPhe(3,5-F2-4-CF3) = N[C@@H](CCc1cc(F)c(C(F)(F)F)c(F)c1)C(=O)O; hPhe(3-Cl-4-CF3) = N[C@@H](CCc1ccc(C(F)(F)F)c(Cl)c1)C(=O)O; NPrPhe(4-CF3) = CCCN[C@@H](Cc1ccc(C(F)(F)F)cc1)C(=O)O; NEtPhe(4-Me) = CCN[C@@H](Cc1ccc(C)cc1)C(=O)O; NMeGly(cPent) = CN[C@H](C(=O)O)C1CCCC1; Ac4c(3,3-F2) = NC1(C(=O)O)CC(F)(F)C1; Piperidide(4-Me) = CC1CCN(*)CC1; NMeD = CN[C@@H](CC(=O)O)C(=O)O; NMeL = CN[C@@H](CC(C)C)C(=O)O; αMeS = C[C@](N)(CO)C(=O)O; Morpholide = C1CN(*)CCO1; NMeA = CN[C@@H](C)C(=O)O; Ac5c = NC1(C(=O)O)CCCC1; Aze = O=C(O)[C@@H]1CCN1; NEtG = CCNCC(=O)O; Sar = CNCC(=O)O; tBu = CC(C)(C)*

Tests used:
[1] = molecular target: GDP-bound NRAS wild-type protein (Homo sapiens, UniProt P01111); test: Binding to NRAS by surface plasmon resonance (SPR), Single Cycle Kinetics; conditions: SPR, GDP-bound NRAS wild-type protein vs GDP-bound KRAS wild-type protein
[2] = molecular target: GDP-bound HRAS wild-type protein (Homo sapiens, UniProt P01112); test: Binding to HRAS by surface plasmon resonance (SPR), Single Cycle Kinetics; conditions: SPR, GDP-bound HRAS wild-type protein vs GDP-bound KRAS wild-type protein
[3] = molecular target: GDP-bound KRAS wild-type protein (Homo sapiens, UniProt P01116); test: Binding to KRAS by surface plasmon resonance (SPR), Single Cycle Kinetics; conditions: GDP-bound KRAS wild-type protein, read-out: KRAS KD
[4] = SPR Single Cycle Kinetics, 1:1 binding model

Chain of GDP-bound HRAS wild-type protein (P01112 whole entry): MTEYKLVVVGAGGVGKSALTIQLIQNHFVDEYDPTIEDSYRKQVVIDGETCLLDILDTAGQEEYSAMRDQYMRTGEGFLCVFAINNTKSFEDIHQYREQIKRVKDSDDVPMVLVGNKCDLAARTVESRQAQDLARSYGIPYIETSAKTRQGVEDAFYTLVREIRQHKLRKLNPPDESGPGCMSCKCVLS
Chain of GDP-bound NRAS wild-type protein (P01111 whole entry): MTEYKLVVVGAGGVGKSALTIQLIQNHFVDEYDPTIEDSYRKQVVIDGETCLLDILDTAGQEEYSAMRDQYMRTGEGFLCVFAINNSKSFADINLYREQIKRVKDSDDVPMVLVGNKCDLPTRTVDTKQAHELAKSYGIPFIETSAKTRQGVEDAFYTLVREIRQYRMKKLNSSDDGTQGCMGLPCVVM
Chain of GDP-bound KRAS wild-type protein (P01116 whole entry): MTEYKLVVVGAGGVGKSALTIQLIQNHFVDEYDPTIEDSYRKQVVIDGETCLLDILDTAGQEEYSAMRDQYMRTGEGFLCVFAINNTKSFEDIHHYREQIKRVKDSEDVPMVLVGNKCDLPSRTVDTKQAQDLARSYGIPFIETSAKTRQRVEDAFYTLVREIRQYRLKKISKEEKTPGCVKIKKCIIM

| Structure (SMILES) | Kd [3, 4] [nM] | Kd ([3]; SPR, Single Cycle Kinetics) [nM] | NRAS/KRAS (ratio of KD value for NRAS to KD value for KRAS) [1] | HRAS/KRAS (ratio of KD value for HRAS to KD value for KRAS) [2] | NRAS/KRAS (ratio of KD value with respect to NRAS to KD value with respect to KRAS) [1] | HRAS/KRAS (ratio of KD value with respect to HRAS to KD value with respect to KRAS) [2] | other results |
| --- | --- | --- | --- | --- | --- | --- | --- |
| CCCN1C(=O)[C@@H]2CCN2C(=O)[C@H](C)N(C)C(=O)[C@H]([C@@H](C)CC)NC(=O)[C@H](CC(C)C)N(C)C(=O)C[C@@H](C(=O)N2CCOCC2)N(C)C(=O)[C@H](C2CCCC2)N(C)C(=O)C2(CCCC2)NC(=O)[C@H](C)NC(=O)[C@H](CCc2ccc(C(F)(F)F)c(Cl)c2)NC(=O)CN(C)C(=O)[C@@H]1Cc1ccc(C(F)(F)F)cc1 [PP0153] ([NMeL]I[NMeA][Aze][NPrPhe(4-CF3)][Sar][hPhe(3-Cl-4-CF3)]A[Ac5c][NMeGly(cPent)][NMeD]-Morpholide; lactam N-11) | 0.33 | – | C (A compound having a KD ratio of 0.1 or more and less than 3 is denoted as C) | C (A compound having a KD ratio of 0.1 or more and less than 3 is denoted as C) | – | – | – |
| CC[C@H](C)[C@@H]1NC(=O)[C@H](CC(C)C)N(C)C(=O)C[C@@H](C(=O)N2CCOCC2)N(C)C(=O)[C@H](C2CCCC2)N(C)C(=O)C2(CCCC2)NC(=O)[C@@H]2CCCN2C(=O)[C@H](CCc2ccc(C(F)(F)F)c(Cl)c2)NC(=O)CN(CC)C(=O)[C@H](Cc2ccc(C)cc2)N(CC)C(=O)CN(C)C(=O)CN(C)C1=O [PP0028] ([NMeL]I[Sar][Sar][NEtPhe(4-Me)][NEtG][hPhe(3-Cl-4-CF3)]P[Ac5c][NMeGly(cPent)][NMeD]-Morpholide; lactam N-11) | 2.4 | – | C (A compound having a KD ratio of 0.1 or more and less than 3 is denoted as C) | C (A compound having a KD ratio of 0.1 or more and less than 3 is denoted as C) | – | – | – |
| CC[C@H](C)[C@@H]1NC(=O)[C@@H]2CCCCCN2C(=O)C[C@@H](C(=O)N2CCOCC2)N(C)C(=O)[C@H](C2CCCC2)N(C)C(=O)C2(CCCC2)NC(=O)[C@@H]2CCCN2C(=O)[C@H](CCc2cc(F)c(C(F)(F)F)c(F)c2)NC(=O)CN(C)C(=O)[C@H](Cc2ccc(C(F)(F)F)cc2)N2CCCCC[C@@H](C2=O)N(C)C(=O)CN(C)C1=O [PP0521] | 72 | – | – | – | B (a compound having 3 or more and less than 10 is denoted as B) | B (a compound having 3 or more and less than 10 is denoted as B) | – |
| CC[C@H](C)[C@@H]1NC(=O)[C@H](CC(C)C)N(C)C(=O)C[C@@H](C(=O)N2CCCCC2)N(C)C(=O)[C@H](C2CCCC2)N(C)C(=O)C2(CCCC2)NC(=O)[C@@H]2CCCN2C(=O)[C@H](CCc2cc(F)c(C(F)(F)F)c(F)c2)NC(=O)CN(C)C(=O)[C@H](Cc2ccc(C(F)(F)F)cc2)N2CCCCC[C@@H](C2=O)N(C)C(=O)CN(C)C1=O [PP0510] | 12 | – | – | – | B (a compound having 3 or more and less than 10 is denoted as B) | B (a compound having 3 or more and less than 10 is denoted as B) | – |
| CCO[C@@H]1C[C@H]2C(=O)NC3(CCC3)C(=O)N(C)[C@@H](C3CCCC3)C(=O)N(C)[C@H](C(=O)N3CCOCC3)CC(=O)N(C)[C@@H](CC(C)(C)C)C(=O)N[C@@H]([C@@H](C)CC)C(=O)N(C)CC(=O)N(C)[C@H]3CCCCN(C3=O)[C@@H](Cc3ccc(C(F)(F)F)cc3)C(=O)N(C)CC(=O)N[C@@H](CCc3cc(F)c(C(F)(F)F)c(F)c3)C(=O)N2C1 [PP0714] | 0.047 | – | – | – | C (A compound having a KD ratio of 0.1 or more and less than 3 is denoted as C) | B (a compound having 3 or more and less than 10 is denoted as B) | – |
| CCCN1C(=O)[C@@H]2CCN2C(=O)[C@H](C)N(C)C(=O)[C@H]([C@@H](C)CC)NC(=O)[C@H](CC(C)C)N(C)C(=O)C[C@@H](C(=O)N2CCC(C)CC2)N(C)C(=O)[C@H](C2CCCC2)N(C)C(=O)C2(CCCC2)NC(=O)[C@@H]2CCCN2C(=O)[C@H](CCc2ccc(C(F)(F)F)c(Cl)c2)NC(=O)CN(C)C(=O)[C@@H]1Cc1ccc(C(F)(F)F)cc1 [PP0185] ([NMeL]I[NMeA][Aze][NPrPhe(4-CF3)][Sar][hPhe(3-Cl-4-CF3)]P[Ac5c][NMeGly(cPent)][NMeD]-{Piperidide(4-Me)}; lactam N-11) | 1.1 | – | C (A compound having a KD ratio of 0.1 or more and less than 3 is denoted as C) | B (a compound having 3 or more and less than 10 is denoted as B) | – | – | – |
| CCO[C@@H]1C[C@H]2C(=O)NC3(CCC3)C(=O)N(C)[C@@H](C3CCCC3)C(=O)N(C)[C@H](C(=O)N3CCOCC3)CC(=O)N(C)[C@@H](CC3CC3)C(=O)N[C@@H]([C@@H](C)CC)C(=O)N(C)CC(=O)N(C)[C@H]3C/C=C\CCN(C3=O)[C@@H](Cc3ccc(F)cc3)C(=O)N(C)CC(=O)N[C@@H](CCc3cc(F)c(C(F)(F)F)c(F)c3)C(=O)N2C1 [PP1496] | – | – | – | – | – | – | NRAS/KRAS (ratio of KD value for NRAS to KD value for KRAS) ([1]; KD ratio class): A (a compound having 10 or more and less than 20 is denoted as A); HRAS/KRAS (ratio of KD value for HRAS to KD value for KRAS) ([2]; KD ratio class): B (a compound having 3 or more and less than 10 is denoted as B); Kd ([3]; SPR, Single Cycle Kinetics, 1:1 binding model): 0.26 nM |

The next lines start with results.

| Kd [3, 4] [nM] | Kd ([3]; SPR, Single Cycle Kinetics) [nM] | Structure (SMILES) | NRAS/KRAS (ratio of KD value for NRAS to KD value for KRAS) [1] | HRAS/KRAS (ratio of KD value for HRAS to KD value for KRAS) [2] | NRAS/KRAS (ratio of KD value with respect to NRAS to KD value with respect to KRAS) [1] | HRAS/KRAS (ratio of KD value with respect to HRAS to KD value with respect to KRAS) [2] | other results |
| --- | --- | --- | --- | --- | --- | --- | --- |
| – | 0.34 | CCC[C@H]1C(=O)N[C@@H](C2CCCC2)C(=O)N(C)CC(=O)N(C)[C@H]2C/C=C\CCN(C2=O)[C@@H](Cc2ccc(C(F)(F)F)cc2)C(=O)N(C)CC(=O)N[C@@H](CCc2ccc(C(F)(F)F)c(Cl)c2)C(=O)N2CC3(CC3)C[C@H]2C(=O)NC2(CC(C)(C)C2)C(=O)N(C)[C@@H](C2CCCC2)C(=O)N(C)[C@H](C(=O)N(C)C)CC(=O)N1C [PP2986] | AA (a compound having 20 or more is denoted as AA) | A (a compound having 10 or more and less than 20 is denoted as A) | – | – | – |
| 0.029 | – | CCCN1C(=O)CN(C)C(=O)CN(C)C(=O)[C@H]([C@@H](C)CC)NC(=O)[C@H](CC(C)C)N(C)C(=O)C[C@@H](C(=O)N(C)C)N(C)C(=O)[C@H](C2CCCC2)N(C)C(=O)C2(CC(F)(F)C2)NC(=O)[C@@H]2CCCN2C(=O)[C@H](CCc2cc(F)c(C(F)(F)F)c(F)c2)NC(=O)CN(C)C(=O)[C@@H]1Cc1ccc(C(F)(F)F)cc1 [PP0745] ([NMeL]I[Sar][Sar][NPrPhe(4-CF3)][Sar][hPhe(3,5-F2-4-CF3)]P[Ac4c(3,3-F2)][NMeGly(cPent)][NMeD]-NMe2; lactam N-11) | – | – | B (a compound having 3 or more and less than 10 is denoted as B) | C (A compound having a KD ratio of 0.1 or more and less than 3 is denoted as C) | – |
| – | 0.67 | CCO[C@@H]1C[C@H]2C(=O)NC3(CCCC3)C(=O)N(C)[C@@H](C3CCCC3)C(=O)N(C)[C@H](C(=O)N(C)C)CC(=O)N(C)[C@@H](CC(C)C)C(=O)N[C@@H]([C@@H](C)CC)C(=O)N(C)CC(=O)N(C)[C@H]3CC(C)=CCN(C3=O)[C@@H](Cc3ccc(C(F)(F)F)cc3)C(=O)N(C)CC(=O)N[C@@H](CCc3cc(F)c(C(F)(F)F)c(F)c3)C(=O)N2C1 [PP1031] | C (A compound having a KD ratio of 0.1 or more and less than 3 is denoted as C) | C (A compound having a KD ratio of 0.1 or more and less than 3 is denoted as C) | – | – | – |
| 2.7 | – | CCCN1C(=O)[C@@H]2CCN2C(=O)CN(C)C(=O)[C@H]([C@@H](C)CC)NC(=O)[C@H](CC(C)C)N(C)C(=O)C[C@@H](C(=O)N2CCOCC2)N(C)C(=O)[C@H](C2CCCC2)N(C)C(=O)[C@](C)(COC(C)(C)C)NC(=O)[C@@H]2CCCN2C(=O)[C@H](CCc2cc(F)c(C(F)(F)F)c(F)c2)NC(=O)CN(C)C(=O)[C@@H]1Cc1ccc(C(F)(F)F)cc1 [PP0800] ([NMeL]I[Sar][Aze][NPrPhe(4-CF3)][Sar][hPhe(3,5-F2-4-CF3)]P[αMeS](tBu)[NMeGly(cPent)][NMeD]-Morpholide; lactam N-11) | – | – | C (A compound having a KD ratio of 0.1 or more and less than 3 is denoted as C) | B (a compound having 3 or more and less than 10 is denoted as B) | – |
| – | 0.81 | CCO[C@@H]1C[C@H]2C(=O)NC3(CCC3)C(=O)N(C)[C@@H](C3CCCC3)C(=O)N(C)[C@H](C(=O)N3CCOCC3)CC(=O)N(C)[C@@H](CC(C)C)C(=O)N[C@@H]([C@@H](C)CC)C(=O)N(C)CC(=O)N(C)[C@H]3CCCCCN(C3=O)[C@@H](Cc3ccc(F)c(Cl)c3)C(=O)N(C)CC(=O)N[C@@H](CCc3cc(F)c(C(F)(F)F)c(F)c3)C(=O)N2C1 [PP0919] | B (a compound having 3 or more and less than 10 is denoted as B) | B (a compound having 3 or more and less than 10 is denoted as B) | – | – | – |
| – | 0.46 | CC[C@H](C)[C@@H]1NC(=O)[C@H](CC)N(C)C(=O)C[C@@H](C)N(C)C(=O)[C@H](C2CCCC2)N(C)C(=O)C2(CCCC2)NC(=O)[C@@H]2CCCN2C(=O)[C@H](CCc2cc(F)c(C(F)(F)F)c(F)c2)NC(=O)CN(C)C(=O)[C@H](Cc2ccc(C(F)(F)F)cc2)N2CC/C=C\C[C@@H](C2=O)N(C)C(=O)CN(C)C1=O [PP1101] | B (a compound having 3 or more and less than 10 is denoted as B) | B (a compound having 3 or more and less than 10 is denoted as B) | – | – | – |
| – | 0.11 | CCO[C@@H]1C[C@H]2C(=O)NC3(CC(C)(C)C3)C(=O)N(C)[C@@H](C(CC)CC)C(=O)N(C)[C@H](C(=O)N(C)C)CC(=O)N(C)[C@H]3CCCCC/C=C/c4ccc(cc4)C[C@@H](C(=O)N(C)CC(=O)N[C@@H](CCc4cc(F)c(C(F)(F)F)c(F)c4)C(=O)N2C1)N1CC/C=C\C[C@@H](C1=O)N(C)C(=O)CN(C)C(=O)[C@H]([C@@H](C)CC)NC3=O [PP3048] | A (a compound having 10 or more and less than 20 is denoted as A) | A (a compound having 10 or more and less than 20 is denoted as A) | – | – | – |
